# From US20240018129A1, “COMPOUNDS AS PU. 1 INHIBITORS” (PEKING UNIVERSITY, priority 2020, published 2024)
# Columns and labels:
# [1] = target: T1, PU.1 (Mus musculus, UniProt P17433); test: q-PCR of TIM-3 expression in Blast-PU.1 cells (PU.1 inhibition potency); type: cell-based
# T1 construct: EGFP (from 'PU.1-EGFP-vector'); expressed in transfected cells
# Source text: An acute T cell lymphoblastic leukemia (T-ALL) disease model was used to evaluate the effect of the newly synthesized compounds on PU.1 inhibition. Pten, a famous tumor suppressor gene, was […] deleted in mouse hematopoietic stem cells and their differentiated progeny, and this would eventually lead to a progressive T-ALL in about two months from born. It is believed that immune checkpoint T cell immunoglobulin mucin-3 (TIM-3), a surface marker for the isolation of pure leukemia-initiating cells (LICs), is transcriptionally regulated by transcription factor PU.1 in the Pten-null T-ALL model. Therefore, the expression level of TIM-3 was detected and quantified to characterize the inhibition potency of the compounds after 24 h treatment of graded concentrations of compounds. Blast cells were transfected with either PU.1-EGFP-vector or EGFP-vector to yield stable cell lines blast-PU.1 and blast-EGFP, respectively. These cell lines were used for compound testing in vitro. Compounds DB1976 and DB2115 were tested as well for comparison. Blast-PU.1 and blast-EGFP are the ideal cell lines for compounds testing in vitro, since they are T-ALL blast cells with […] TIM-3 and PU.1 expression level.
# [2] = system: bleomycin-induced pulmonary fibrosis; test: bleomycin-induced pulmonary fibrosis, preventive and therapeutic models; type: in vivo, mouse
# Procedure: Methods: To evaluate the preventive and therapeutic effects of compound I-1 on pulmonary fibrosis, bleomycin was used to establish two animal models of pulmonary fibrosis with different drug intervention (6-8 weeks, C57BL/6, male). Bleomycin (0.025U, Code.D11063, OKA, China) was injected by a single intratracheal application. Equal volumes of sterilized saline served as a control. (I) Preventive model of bleomycin-induced pulmonary fibrosis. Compounds compound I-1, positive control DB1976, or vehicle (saline) were treated (injected intraperitoneally, i.p.) immediately after single bleomycin injection for 4 weeks (FIG. 4a). (II) Therapeutic model of bleomycin-induced pulmonary fibrosis. Mice were pre-charged with bleomycin for 11 days to induced pulmonary fibrosis, then treated with compounds compound I-1, positive control DB1976, or vehicle (saline) for 17 days, total time is 4 weeks after bleomycin treatment (FIG. 4h). After the last day of treatment of both models, mice were fasted overnight and euthanized. A part of lung was fixed with paraformaldehyde, embedded with paraffin, and then sliced for H&E and Sirius red staining to check pathological features, and Ashcroft scores. Hubner, R. H. et al. Biotechniques 44, 507-511, 514-507, doi:10.2144/000112729 (2008). Another part of lung were collected and stored in −80° C. after liquid nitrogen quick-freezing, RNA isolation (Code.R6934, OMEGA, USA), first cDNA reverse (Code.AT341, TransGen, China), SYBR mix (Code.AQ601, TransGen, China) for Q-PCR (LightCycle96, Roche) to verify several fibrosis-related genes mRNA level, such as, Col1a1 and Col1a2.
# [3] = system: NASH diet-induced NASH; test: NASH diet-induced NASH model; type: in vivo, mouse
# Source text: (§1) Methods: To evaluate the potential therapeutic effects of compound I-1 on liver disorders, including liver fat steatosis and accumulation, nonalcoholic fatty liver disease (NAFLD), nonalcoholic steatosis hepatitis (NASH), and liver fibrosis, three mice models (C57BL/6, male, 8 weeks old) were used. (I) NASH diet (Code.TD.160785, ENVIGO, USA)-induced NASH model: All mice were fed with NASH diet for 10 weeks. Mice were then randomly distributed into three groups, and each group was assigned to be injected daily with vehicle, compound I-1 (2.5mpk or 5mpk, i.p.), or DB1976 (2.5mpk, i.p, as a positive control) for another 6 weeks on continuous NASH diet. A group with normal regular diet was treated with vehicle as health control. (II) High-fat diet (HFD) combinate with CCl4 (lower dose)—induced NASH model. Mice were fed with normal regular diet or HFD (kcal fat 60%—D12492, research diets) for 10 weeks, then the HFD mice were divided into two groups randomly based on the rule of minimum weight differences. Each group was assigned to be injected with CCl4 (25% v/v in olive oil, 0.5 mL/kg body weight) or pure olive oil (i.p.) twice a week for 4 weeks. Compound 1-1 or vehicle (saline) were injected (i.p.) once daily for 4 weeks at the same time with CCl4 under continuous HFD. (III) CCl4 (higher dose)—induced liver fibrosis model. Liver fibrosis was induced by CCl4 injection (20% v/v in olive oil, 10 mL/kg body weight) twice a week for 6 weeks, compound I-1 or vehicle are also injected (i.p.) once daily for 6 weeks at the same time with CCl4 application. Ail the mice in the above-mentioned three models were observed daily. After the last day of treatment of all the models, mice were fasted overnight and euthanized. Serum was collected after centrifuging of the whole blood at 4 degrees, and blood biochemistry parameters were tested through automatic biochemical instrument (BS-240VET, Mindray). Part of liver tissues were fixed with paraformaldehyde, embedded with paraffin, and then sliced for H&E or Sirius red staining to check pathological features, and NAFLD scores. Kleiner, D. E. et al. Hepatology 41, 1313-1321, doi:10.1002/hep.20701 (2005). Part of liver tissues were used fresh, embedded in optimum cutting temperature compound, and sectioned. The sections were stained with 0.5% oil red 0 according to standard procedures after fixed in 4% paraformaldehyde in PBS. Another part of liver tissues were collected and stored in −80° C. after liquid nitrogen quick-freezing, RNA. isolation (Code.R6934, OMEGA., USA), first cDNA reverse (Code.AT341, TransGen, China), SYBR mix (Code.AQ601, TransGen, China) for Q-PCR (LightCycler®96, Roche) to verify genes mRNA level, such as, fibrosis-related genes, Col1a1 and Col1a2; inflammation-related genes, IL-6 and IL-1β.
# [4] = system: HFD/CCL4-induced NASH and liver fibrosis; test: High-fat diet (HFD) combined with CCl4 (lower dose)-induced NASH model; type: in vivo, mouse
# Source text: as §1
# [5] = system: CCl4-induced liver fibrosis; test: CCl4 (higher dose)-induced liver fibrosis model; type: in vivo, mouse; settings: 5mpk or 10mpk i.p. once daily for 6 weeks
# Source text: as §1, with “Kleiner, D. E. et al. Hepatology 41, 1313-1321, doi:10.1002/hep.20701 (2005). Part of liver tissues were used fresh, embedded in optimum cutting temperature compound, and sectioned. The sections were stained with 0.5% oil red 0 according to standard procedures after fixed in 4% paraformaldehyde in PBS. Another part of liver tissues were collected and stored in −80° C. after liquid nitrogen quick-freezing, RNA. isolation (Code.R6934, OMEGA., USA), first cDNA reverse (Code.AT341, TransGen, China), SYBR mix (Code.AQ601, TransGen, China) for Q-PCR (LightCycler®96, Roche) to verify genes mRNA level, such as, fibrosis-related genes, Col1a1 and Col1a2; inflammation-related genes, IL-6 and IL-1β.” left out
smiles,measurement,setting,value
"N=C(N)c1ccc2nc(-c3ccc(NC(=O)[C@@H]4CCCN4C(=O)[C@@H]4CCCN4C(=O)c4ccc(-c5nc6ccc(C(=N)N)cc6[nH]5)cc4)cc3)[nH]c2c1 [Compound I-1, (S)-1-((4-(6-carbamimidoyl-1H-benzo[d]imidazol-2-yl)benzoyl)-L-prolyl)-N-(4-(6-carbamimidoyl-1H-benzo[d]imidazol-2-yl)phenyl)pyrrolidine-2-carboxamide]",downregulated the expression level of TIM-3,"[1]; 10 nM, 24 h treatment, Blast-PU.1 cell line, q-PCR",40%
same,"activity in terms of PU.1-mediated TIM-3 inhibition, compared among tested compounds",[1]; Blast-PU.1 cells,best activity
same,"pulmonary fibrosis progress (staining, Ashcroft scores, collagen deposition, Col1a1, Col1a2 mRNA)","[2]; preventive model, 5mpk i.p. for 4 weeks after single bleomycin injection",significantly prevented
same,bleomycin-induced pulmonary fibrosis,"[2]; therapeutic model, 11 days after bleomycin then 17 days treatment, 5mpk",reversed and impede
same,efficacy when comparing with DB1976 (2.5mpk),[3]; 2.5mpk i.p. daily for 6 weeks,lower efficacy
same,fat accumulation in liver,[3]; 2.5mpk i.p. daily for 6 weeks,decreased
same,"metabolic disturbance by NASH diet (body weight, liver fat, ALT, LDL-C, TC, IL-6, IL-1β, Col1a1, Col1a2)",[3]; 2.5mpk i.p. daily for 6 weeks,tendency to alleviate
same,"mRNA levels of IL-6, IL-1β and Col1a1, Col1a2","[3]; 2.5mpk i.p. daily for 6 weeks, liver",lower
same,"metabolic disturbance by NASH diet (body weight, liver fat, ALT, LDL-C, TC, IL-6, IL-1β, Col1a1, Col1a2)",[3]; 5mpk i.p. daily for 6 weeks,potently alleviated
same,level of serum ALT,[4]; fasting serum,tendency to reduce
same,serum triglyceride (TG) and total-cholesterol (TC),"[4]; fasting serum, i.p. once daily for 4 weeks",reduced
same,"body weight, gWAT and iWAT weight radio increased by HFD/CCL4",[4]; i.p. once daily for 4 weeks with CCl4 under HFD,reversed
same,"reducing fat accumulation (H&E staining, liver steatosis score)",[4]; liver,not efficacious
same,"reducing inflammatory response (inflammatory infiltrates, inflammation score, liver mRNA of IL-1β and IL-6)",[4]; liver,efficacious
same,collagen deposition (sirius red staining) and liver mRNA level of Col1a1 and Col1a2,"[4]; mouse, in vivo",reduced
same,hepatotoxicity under its effective concentration,"[4]; mouse, in vivo",not hepatotoxic
same,liver fibrosis induced by HFD/CCL4 application,"[4]; mouse, in vivo",significantly alleviated
same,CCl4-induced liver fibrosis,[5],alleviated
same,collagen deposition and Sirius red-positive area,[5],significantly decreased
same,inordinate mRNA level and blood biochemistry induced by CCl4 application,[5],ameliorated
